In assay [1] the target is T1, SARS-CoV-2 PLpro (nsp3 1564–1878) (Severe acute respiratory syndrome coronavirus 2, UniProt P0DTD1). The experiment in a line: biochemical. As to conditions: low concentration screen, read-out: % of control remaining. On the set-up: FRET-quenched peptide (Pro3) cleavage by PLpro, 10 min pre-incubation, slope over 20 min, normalised to no-compound control.
In assay [2] the target is T1, SARS-CoV-2 PLpro (nsp3 1564–1878). The experiment in a line: biochemical. The arrangement: FRET-quenched peptide (Pro3) cleavage by PLpro, 10 min pre-incubation, slope over 20 min, normalised to no-compound control. As to conditions: high concentration screen, read-out: % of control remaining.

Structures are written as SMILES. Structures can show the parent of a compound that is named as a salt. Where two headings read alike, the source gives them in different places.

Regarding `CCN1C(=O)/C(=C/c2ccccc2)SC1=S` [BTR-1], the remaining activity at 1.25 µM in assay [1] (Well no.=7124) worked out at 99.8%. The remaining activity at 3.75 µM in assay [2] (Well no.=7124) stood at 95.2%.

Regarding `c1ccc2nc(C3=NCCN3)ccc2c1` [BU224 hydrochloride], in assay [1] (Well no.=39), the remaining activity at 1.25 µM amounted to 102%. In assay [2] (Well no.=39), the remaining activity at 3.75 µM stood at 105%.

Take `C=CC[N+](C)(C)c1ccc(CCC(=O)CCc2ccc([N+](C)(C)CC=C)cc2)cc1` [BW 284c51]: in assay [1] (Well no.=152), the remaining activity at 1.25 µM was 98.6%. Besides, the remaining activity at 3.75 µM in assay [2] (Well no.=152) was 101%.

For the compound `CC(N)Cc1c[nH]c2ccc(OCc3cccs3)cc12` (centres unmarked) [BW 723C86], in assay [1] (Well no.=279), the remaining activity at 1.25 µM is 98.7%. Further, the remaining activity at 3.75 µM in assay [2] (Well no.=279) turned out to be 98.9%.

For `CC(/C=C/c1cccc(Oc2ccc(F)cc2)c1)N(O)C(N)=O` (centres unmarked) [BWB70C], the remaining activity at 1.25 µM in assay [1] (Well no.=221) came to 103%. In addition, in assay [2] (Well no.=221), the remaining activity at 3.75 µM stood at 102%.

In the case of `O=C(NCCCNc1nc(Nc2cccc(NC(=O)N3CCCC3)c2)ncc1I)c1cccs1` [BX795], the remaining activity at 1.25 µM in assay [1] (Well no.=2931) amounted to 99%. Besides, the remaining activity at 3.75 µM in assay [2] (Well no.=2931) is 99.2%.

For the compound `O=C(Nc1cccc(Nc2ncc(Br)c(NCCc3cnc[nH]3)n2)c1)N1CCCC1` [BX912], in assay [1] (Well no.=2979), the remaining activity at 1.25 µM is 95.2%. In addition, the remaining activity at 3.75 µM in assay [2] (Well no.=2979) turned out to be 93.8%.

For the compound `Cc1nc(NC(=O)N2CCC[C@H]2C(N)=O)sc1-c1ccnc(C(C)(C)C(F)(F)F)c1` [BYL719], the remaining activity at 1.25 µM in assay [1] (Well no.=5163) was found to be 102%. Besides, the remaining activity at 3.75 µM in assay [2] (Well no.=5163) was 104%.

Take `CC(=O)O[C@H]1C(=O)[C@@]2(C)[C@H]([C@H](OC(=O)c3ccccc3)[C@]3(O)C[C@H](O)C(C)=C1C3(C)C)[C@]1(OC(C)=O)CO[C@@H]1C[C@@H]2O` [Baccatin III]: the remaining activity at 1.25 µM in assay [1] (Well no.=3099) amounted to 97.9%. The remaining activity at 3.75 µM in assay [2] (Well no.=3099) was determined as 99.5%.

Turning to `O=c1cc(-c2ccccc2)oc2cc(O)c(O)c(O)c12` [Baicalein], the remaining activity at 1.25 µM was 103% in assay [1] (Well no.=3087) and 108% in assay [1] (Well no.=3942). The remaining activity at 3.75 µM was 101% in assay [2] (Well no.=3087) and 104% in assay [2] (Well no.=3942).

Consider `O=C(O)[C@H]1O[C@@H](Oc2cc3oc(-c4ccccc4)cc(=O)c3c(O)c2O)[C@H](O)[C@@H](O)[C@@H]1O` [Baicalin], for which, in assay [1] (Well no.=5190), the remaining activity at 1.25 µM turned out to be 101%. Besides, in assay [2] (Well no.=5190), the remaining activity at 3.75 µM turned out to be 100%.

In the case of `C=C[C@@](C)(/C=C/c1ccc(O)cc1)CCC=C(C)C` [Bakuchiol], the remaining activity at 1.25 µM in assay [1] (Well no.=4001) stood at 101%. For the same compound, the remaining activity at 3.75 µM in assay [2] (Well no.=3520) came out at 101%; in assay [2] (Well no.=4001) it was 97.7%.

With `CNC1CCCN(c2c(F)cc3c(=O)c(C(=O)O)cn(C4CC4)c3c2OC)C1` (centres unmarked) [Balofloxacin], the remaining activity at 1.25 µM in assay [1] (Well no.=5058) amounted to 95.8%. The remaining activity at 3.75 µM in assay [2] (Well no.=5058) was determined as 97.3%.

With `O=C(O)CCNC(=O)c1ccc(/N=N/c2ccc(O)c(C(=O)O)c2)cc1` [Balsalazide], the remaining activity at 1.25 µM in assay [1] (Well no.=7362) was 96.6%. For the same compound, the remaining activity at 3.75 µM in assay [2] (Well no.=7362) is 92.1%.

As to `CN(C)C(=O)Oc1cc(OC(=O)N(C)C)cc(C(O)CNC(C)(C)C)c1` (centres unmarked) [Bambuterol (hydrochloride)], the remaining activity at 1.25 µM in assay [1] (Well no.=6617) amounted to 100%. For the same compound, in assay [2] (Well no.=6617), the remaining activity at 3.75 µM worked out at 101%.

For `CN(C)C(=O)Oc1cc(OC(=O)N(C)C)cc(C(O)CNC(C)(C)C)c1` (centres unmarked) [Bambuterol], the remaining activity at 1.25 µM in assay [1] (Well no.=1770) was 92.4%. Further, the remaining activity at 3.75 µM in assay [2] (Well no.=1770) was 92.8%.

As for `COc1ccc(-c2oc3c(CC=C(C)C)c(O)cc(O)c3c(=O)c2O[C@@H]2O[C@@H](C)[C@H](O)[C@@H](O)[C@H]2O)cc1` [Baohuoside I], the remaining activity at 1.25 µM is 108% in assay [1] (Well no.=6684) and 101% in assay [1] (Well no.=7047). Also, the remaining activity at 3.75 µM in assay [2] (Well no.=6684) is 102%; in assay [2] (Well no.=7047), 96.4%; in assay [2] (Well no.=8129) it was 99.8%.

As for `COc1cc(NC(=O)CCN2CCC(OC(=O)Nc3ccccc3-c3ccccc3)CC2)c(Cl)cc1CNC[C@H](O)c1ccc(O)c2[nH]c(=O)ccc12` [Batefenterol], the remaining activity at 1.25 µM in assay [1] (Well no.=7045) was determined as 106%. Also, in assay [2] (Well no.=7045), the remaining activity at 3.75 µM was 109%.

`COc1cc2c(cc1CC=C(C)C)C(=O)C[C@@H](c1ccc(O)cc1)O2` [Bavachinin A]: the remaining activity at 1.25 µM in assay [1] (Well no.=3243) is 100%. For the same compound, in assay [2] (Well no.=3243), the remaining activity at 3.75 µM stood at 99%.

Consider `CC(C)(C)c1ccc(S(=O)(=O)/C=C/C#N)cc1` [Bay 11-7085], for which the remaining activity at 1.25 µM in assay [1] (Well no.=127) was determined as 105%. Besides, in assay [2] (Well no.=127), the remaining activity at 3.75 µM was 105%.

Regarding `N#Cc1c(Oc2cccc(OS(=O)(=O)CCCC(F)(F)F)c2)cccc1C(F)(F)F` [Bay 59-3074], in assay [1] (Well no.=8043), the remaining activity at 1.25 µM turned out to be 96.7%. In addition, in assay [2] (Well no.=8043), the remaining activity at 3.75 µM was 96.5%.

As to `Cc1c(-c2ccc(O)cc2)n(Cc2ccc(OCCN3CCCCCC3)cc2)c2ccc(O)cc12` [Bazedoxifene HCl], the remaining activity at 1.25 µM in assay [1] (Well no.=5100) came out at 105%. The remaining activity at 3.75 µM in assay [2] (Well no.=5100) was determined as 105%.

In the case of `CCC(=O)OCC(=O)[C@@]1(OC(=O)CC)[C@@H](C)C[C@H]2[C@@H]3CCC4=CC(=O)C=C[C@]4(C)[C@@]3(Cl)[C@@H](O)C[C@@]21C` [Beclometasone dipropionate], the remaining activity at 1.25 µM in assay [1] (Well no.=7615) turned out to be 101%. The remaining activity at 3.75 µM in assay [2] (Well no.=7615) came out at 96.1%.

Turning to `C[C@H]1C[C@H]2[C@@H]3CCC4=CC(=O)C=C[C@]4(C)[C@@]3(Cl)[C@@H](O)C[C@]2(C)[C@@]1(O)C(=O)CO` [Beclomethasone], in assay [1] (Well no.=356), the remaining activity at 1.25 µM is 95.3%. The remaining activity at 3.75 µM in assay [2] (Well no.=356) amounted to 100%.

As for `O=C(/C=C/c1cccc(S(=O)(=O)Nc2ccccc2)c1)NO` [Belinostat (PXD101)], in assay [1] (Well no.=5009), the remaining activity at 1.25 µM turned out to be 98.9%. In assay [2] (Well no.=5009), the remaining activity at 3.75 µM was 91.9%.

With `CCO[C@@H]1OC(=O)C[C@@H]1NC(=O)[C@@H]1CCCN1C(=O)[C@@H](NC(=O)c1ccc(N)c(Cl)c1)C(C)(C)C` [Belnacasan], the results for the remaining activity at 1.25 µM in assay [1] (Well no.=6502) and in assay [1] (Well no.=8460) were 98% and 103%, respectively. The remaining activity at 3.75 µM is 98.4% in assay [2] (Well no.=6502) and 110% in assay [2] (Well no.=8460).

Take `CCOC(=O)[C@H](CCc1ccccc1)N[C@H]1CCc2ccccc2N(CC(=O)O)C1=O` [Benazepril (hydrochloride)]: in assay [1] (Well no.=7786), the remaining activity at 1.25 µM stood at 104%. For the same compound, in assay [2] (Well no.=7786), the remaining activity at 3.75 µM worked out at 104%.

Turning to `CCOC(=O)[C@H](CCc1ccccc1)N[C@H]1CCc2ccccc2N(CC(=O)O)C1=O` [Benazepril HCl], the remaining activity at 1.25 µM in assay [1] (Well no.=5153) stood at 97.7%. In addition, the remaining activity at 3.75 µM in assay [2] (Well no.=5153) stood at 101%.

Take `COc1cccc(OC)c1OCCNCC1CSc2ccccc2O1` (centres unmarked) [Benoxathian hydrochloride]: the remaining activity at 1.25 µM in assay [1] (Well no.=323) turned out to be 99.7%. For the same compound, the remaining activity at 3.75 µM in assay [2] (Well no.=323) is 93.6%.

On to `NC(CO)C(=O)NNCc1ccc(O)c(O)c1O` (centres unmarked) [Benserazide hydrochloride], for which, in assay [1] (Well no.=367), the remaining activity at 1.25 µM worked out at 96.9%. In addition, the remaining activity at 3.75 µM in assay [2] (Well no.=367) is 96.5%.

Source of the values: PMC8286840, “Identifying SARS-CoV-2 antiviral compounds by screening for small molecule inhibitors of Nsp3 papain-like protease” (Biochemical Journal, 2021).
